Data reported in patent US10136663B2, “Curcuminoid-based compound/stevioside-containing complex for the prevention and treatment of an influenza virus infection” (priority 2011, dated 2018).
Like-named read-outs stand apart in the source and are kept apart here.

Legend:
[1] = Curcumin content of curcumin/stevioside complex solution; assay type: physicochemical; settings: in 100 g/L of the stevioside solution, after ultrasonication at 70° C. and oven reaction
[2] = tested on: influenza virus type A (H9N2); set-up: species or system chicken; settings: in vivo, po
[3] = tested on: influenza virus H9N2 (A/Chicken/Korea/MS96/96); settings: dog
[4] = tested on: influenza virus H9N2 (A/Chicken/Korea/MS96/96); settings: dog; remark: listed apart in the source

For `COc1cc(/C=C/C(=O)/C=C(O)/C=C/c2ccc(O)c(OC)c2)ccc1O` [Curcumin, curcumin], the “maximum curcumin in the resulting solution” value [1] was 3.5 g/L.

With `C=C1C[C@@]23CC[C@H]4[C@@](C)(CCC[C@@]4(C)C(=O)O[C@@H]4O[C@H](CO)[C@@H](O)[C@H](O)[C@H]4O)[C@@H]2CC[C@]1(O[C@@H]1O[C@H](CO)[C@@H](O)[C@H](O)[C@H]1O[C@@H]1O[C@H](CO)[C@@H](O)[C@H](O)[C@H]1O)C3` [G4, stevioside] the “Mean virus titer, Cecal Tonsil” value [2] was 5.30 ± 3.5 log10EID50/g, the “Mean virus titer, Trachea” value [2] was 5.80 ± 1.3 log10EID50/g and the “Virus re-isolation, Cecal Tonsil (number of virus-positive chicken/number of inoculated chickens)” value [2] was 8/10. The “Virus re-isolation, Trachea (number of virus-positive chicken/number of inoculated chickens)” value [2] was 10/10.

For `CCOC(=O)C1=C[C@@H](OC(CC)CC)[C@H](NC(C)=O)[C@@H](N)C1` [Tamiflu, reference compound], the “SI, selective index, CC50/EC50” value [3] was over 200 and the “SI, selective index, CC50/EC50” value [4] was over 200.
